According to patent US7504517B2, “Kv1.5 potassium channel inhibitors” (Wyeth, priority 2006, dated 2009):

Experiments:
Kv1.5 = molecular target: T1, Kv1.5 (Homo sapiens, UniProt P22460); test: Kv1.5 Patch Clamp EP; assay type: cell-based; conditions: whole cell patch clamp; for IC50: HEK or LTK- cells, at least four concentrations, n=3
T1 construct: expressed in transfected cells; host or cells: HEK or LTK- cells
Protocol: The external solution is standard Tyrodes solution. […] Inhibition was measured at the end of the 1 second pulses and expressed relative to controls. Initial Kv1.5 inhibition is estimated by single point determinations done at 1 μM.

L-type calcium channels = test: FLIPR L-Type Calcium Channel Assay; assay type: cell-based, murine; conditions: HL-1 cells expressing endogenous L-type calcium channels; calcium influx after 20 mM KCl; read-out: L-type Ca^2+ IC50
Protocol: 50 μL per well test compounds are added to the plates and further incubated for 15 min. in a 5% CO2 37° C. incubator. All final solutions contain the anion exchange inhibitor, probenecid (2.5 mM). The 96-well plates are then placed in the center position of the FLIPR 1 (Fluorometric Imaging Plate Reader, Molecular Devices Corporation). Cell monolayers in each well are simultaneously illuminated at 488 nm with an Argon ion laser, and fluorescence emission is monitored using a 510-570 nm bandpass filter and a cooled CCD camera. To depolarize the plasma membrane and activate L-type calcium channels, 50 μL per well of 20 mM KCl (final concentration) are dispensed simultaneously to all 96 wells using the FLIPR's automatic 96-well pipettor. Fluorescence measurements are captured for 5 min. following KCl addition. Calcium influx, expressed as % control, is calculated for each concentration of test compound and concentration-response curves and IC50 values are generated using GraphPad Prism 4.0.

HERG = HERG (Homo sapiens, UniProt Q12809); test: HERG Patch Clamp EP; conditions: for inhibition at 10 µM: human, HEK cells stably overexpressing HERG
Protocol: HERG currents are recorded by the whole cell mode of patch clamp electrophysiology as described by Hamill et al.^3 HERG is stably over expressed in HEK cells. Microelectrodes are pulled from borosilicate glass (TW150) and heat polished (tip resistance, 1.5 to 3 megaohms). The external solution is standard Tyrodes solution. The internal (microelectrode) solution contained: 110 mM KCl, 5 mM K2ATP, 5 mM K4BAPTA, 1 mM MgCl2 and 10 mM HEPES, adjusted to pH 7.2 with KOH. […] Compounds are prepared as 10-20 mM DMSO stocks and diluted to appropriate test concentrations. […] Inhibition of HERG is measured at the peak of the tail currents and expressed relative to controls. Initial HERG activity is estimated by single point determinations run at 10 μM. Concentration response curves are generated for appropriate compounds utilizing at least four concentrations and an n=3. Curve fitting and IC50 estimating are done using Graphpad software (Ver. 4). • 1.

[1] = 1.0 μM, single point, Kv1.5 stably over expressed in HEK or LTK- cells

Chain of HERG (Q12809 whole entry): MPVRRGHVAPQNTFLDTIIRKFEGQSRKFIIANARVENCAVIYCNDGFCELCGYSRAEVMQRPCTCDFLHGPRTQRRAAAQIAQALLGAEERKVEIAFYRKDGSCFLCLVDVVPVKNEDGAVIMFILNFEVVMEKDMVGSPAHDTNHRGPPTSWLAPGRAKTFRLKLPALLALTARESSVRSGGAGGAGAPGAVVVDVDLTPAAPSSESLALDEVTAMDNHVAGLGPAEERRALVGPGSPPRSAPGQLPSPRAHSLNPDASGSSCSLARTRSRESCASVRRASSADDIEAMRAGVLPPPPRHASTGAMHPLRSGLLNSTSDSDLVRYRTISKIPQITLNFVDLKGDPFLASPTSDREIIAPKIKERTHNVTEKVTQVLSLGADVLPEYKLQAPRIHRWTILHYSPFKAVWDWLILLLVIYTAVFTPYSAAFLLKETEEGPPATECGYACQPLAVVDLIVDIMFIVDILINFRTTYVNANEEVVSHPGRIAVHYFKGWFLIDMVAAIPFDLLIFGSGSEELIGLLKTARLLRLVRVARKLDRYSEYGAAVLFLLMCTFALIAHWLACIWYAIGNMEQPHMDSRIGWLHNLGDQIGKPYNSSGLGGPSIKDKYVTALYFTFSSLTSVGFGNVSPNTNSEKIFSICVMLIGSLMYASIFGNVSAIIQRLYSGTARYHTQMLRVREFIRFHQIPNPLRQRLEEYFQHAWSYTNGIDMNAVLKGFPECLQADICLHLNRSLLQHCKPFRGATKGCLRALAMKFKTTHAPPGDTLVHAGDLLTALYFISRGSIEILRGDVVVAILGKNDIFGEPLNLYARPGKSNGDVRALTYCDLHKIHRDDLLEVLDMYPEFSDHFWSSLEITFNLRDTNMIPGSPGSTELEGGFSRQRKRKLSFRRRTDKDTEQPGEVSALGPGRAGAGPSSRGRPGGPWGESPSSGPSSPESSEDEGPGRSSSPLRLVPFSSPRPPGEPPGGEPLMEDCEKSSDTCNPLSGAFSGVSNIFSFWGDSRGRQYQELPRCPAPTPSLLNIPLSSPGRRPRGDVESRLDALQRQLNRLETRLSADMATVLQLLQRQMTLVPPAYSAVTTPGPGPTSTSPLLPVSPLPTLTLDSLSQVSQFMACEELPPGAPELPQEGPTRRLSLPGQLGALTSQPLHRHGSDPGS
T1 sequence (P22460 whole entry): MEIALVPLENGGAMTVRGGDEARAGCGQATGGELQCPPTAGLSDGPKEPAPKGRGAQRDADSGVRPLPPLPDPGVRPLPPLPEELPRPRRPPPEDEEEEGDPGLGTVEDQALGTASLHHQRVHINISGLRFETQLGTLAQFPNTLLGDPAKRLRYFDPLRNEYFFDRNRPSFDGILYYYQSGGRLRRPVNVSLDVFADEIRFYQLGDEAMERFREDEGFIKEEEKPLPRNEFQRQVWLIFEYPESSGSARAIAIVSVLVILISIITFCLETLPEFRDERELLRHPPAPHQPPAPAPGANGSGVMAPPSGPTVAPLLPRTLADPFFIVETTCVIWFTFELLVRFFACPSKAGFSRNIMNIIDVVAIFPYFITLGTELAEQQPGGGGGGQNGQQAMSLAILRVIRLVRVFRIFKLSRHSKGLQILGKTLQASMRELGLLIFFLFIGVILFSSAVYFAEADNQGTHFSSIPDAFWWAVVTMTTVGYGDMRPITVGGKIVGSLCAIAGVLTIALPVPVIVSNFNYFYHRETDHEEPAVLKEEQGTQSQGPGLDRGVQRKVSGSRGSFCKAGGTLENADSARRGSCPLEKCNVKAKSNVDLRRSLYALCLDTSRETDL

Row | SMILES | inhibition at 1 µM (Kv1.5; [1]) | IC50 (L-type calcium channels) | inhibition at 10 µM (HERG) | IC50 (Kv1.5) | IC50 (HERG) | Kv1.5% inhibition @ 1.0 μM (Kv1.5; [1]) | HERG % Inhib. @ 10 μM (HERG; 10 μM, single point, whole cell patch clamp, HERG stably over expressed in HEK cells, peak tail current)
1 | COc1ccc(CCN2C(=O)N(NS(C)(=O)=O)CC2c2ccc(OC)c(C)c2)cc1 (stereo not drawn) [Compound 12, 1-(Methylsulfonylamino)-3-[2-(4-methoxyphenyl)ethyl]-4-[(3-methyl-4-methoxy)phenyl]-2-imidazolidinone] | 82% | 38 µM | 19% | – | – | – | –
2 | COc1ccc(CCN2C(=O)N(NS(C)(=O)=O)CC2c2ccc(C)c(OC)c2)cc1 (stereo not drawn) [Compound 13, 1-(Methylsulfonylamino)-3-[2-(4-methoxyphenyl)ethyl]-4-[(3-methoxy-4-methyl)phenyl]-2-imidazolidinone] | 83% | 27 µM | 10% | – | – | – | –
3 | COc1ccc(CCN2C(=O)N(NS(=O)(=O)CF)CC2c2ccc3c(c2)OCCO3)cc1 (stereo not drawn) [Compound 37, 1-(Fluoromethylsulfonylamino)-3-[2-(4-methoxyphenyl)ethyl]-4-[(2,3dihydro-benzo[b][1,4]dioxin-6-yl)]-2-imidazolidinone] | 87% | 30 µM | 6% | – | – | – | –
4 | COc1ccc(CCCN2C(=O)N(NS(=O)(=O)CS(C)(=O)=O)CC2c2ccc(C3CC3)cc2)cc1 (stereo not drawn) [Compound 127, N-{4-(4-cyclopropylphenyl)-3-[3-(4-methoxyphenyl)propyl]-2-oxoimidazolidin-1-yl}-1-(methylsulfonyl)methanesulfonamide] | 91% | 19 µM | 54% | – | – | – | –
5 | COc1ccc(CCN2C(=O)N(NS(C)(=O)=O)C[C@@H]2c2ccc(OC(F)F)cc2)cc1 [Compound 171, N-{(4S)-4-[4-(difluoromethoxy)phenyl]-3-[2-(4-methoxyphenyl)ethyl]-2-oxoimidazolidin-1-yl}methanesulfonamide] | 71% | 30 µM | 55% | 0.531 µM | 5.8 µM | – | –
6 | COc1ccc(CCCN2C(=O)N(NS(=O)(=O)CC(N)=O)CC2c2ccc(C3CC3)cc2)cc1 (stereo not drawn) [Compound 104, 1-[(2-Amino-2-oxoethyl)sulfonylamino]-3-[3-(4-methoxyphenyl)propyl]-4-(4-cyclopropylphenyl)-2-imidazolidinone] | 87% | 21 µM | 56% | – | – | – | –
7 | COc1ccc(CCN2C(=O)N(NCc3ccc(N(C)C)cc3)CC2c2ccc(OC)cc2)cc1 (stereo not drawn) [Compound 90, 1-[(4-(Dimethylamino)phenylmethyl)amino]-3-[2-(4-methoxyphenyl)ethyl]-4-(4-methoxyphenyl)-2-imidazolidinone] | 74% | 7 µM | 28% | – | – | – | –
8 | COc1ccc(CCN2C(=O)N(N(CCn3ccnc3)C(=O)OC(C)(C)C)CC2c2ccc(C(C)(C)C)cc2)cc1 (stereo not drawn) [Compound 146, tert-butyl {4-(4-tert-butylphenyl)-3-[2-(4-methoxyphenyl)ethyl]-2-oxoimidazolidin-1-yl}[2-(1H-imidazol-1-yl)ethyl]carbamate] | 83% | 15 µM | 86% | – | – | – | –
9 | COc1ccc(CCN2C(=O)N(NS(=O)(=O)CC(=O)NC3CC3)CC2c2ccc(C3CC3)cc2)cc1 (stereo not drawn) [Compound 51, 1-[[2-(Cyclopropylamino)-2-oxoethyl]sulfonylamino]-3-[2-(4-methoxyphenyl)ethyl]-4-(4-cyclopropylphenyl)-2-imidazolidinone] | 87% | 21 µM | 20% | – | – | – | –
10 | COc1ccc(CCCN2C(=O)N(NS(N)(=O)=O)CC2c2ccc(OC)cc2)cc1 (stereo not drawn) [Compound 44, 1-(Sulfamoylamino)-3-[3-(4-methoxyphenyl)propyl]-4-[(4-methoxy)phenyl]-2-imidazolidinone] | 60% | 25 µM | 22% | – | – | – | –
11 | COc1ccc(CCN2C(=O)N(NS(=O)(=O)Cc3cccnc3)CC2c2ccc(C3CC3)cc2)cc1 (stereo not drawn) [Compound 64, 1-[(Pyridin-3-yl)methanesulfonyl]amino-3-[(4-methoxyphenyl)ethyl]-4-(4-cyclopropylphenyl)-imidazolidin-2-one] | 96% | 14 µM | 55% | – | – | – | –
12 | COc1ccc(CCN2C(=O)N(NS(=O)(=O)CS(C)(=O)=O)CC2c2ccc(C3CC3)cc2)cc1 (stereo not drawn) [Compound 61, 1-[(Methylsulfonylmethyl)sulfonyl]amino-3-[2-(4-methoxyphenyl)ethyl]-4-(4-Cyclopropylphenyl)-2-imidazolidinone] | 85% | 25 µM | 28% | – | – | – | –
13 | C=CS(=O)(=O)NN1CC(c2ccc3c(c2)OCCO3)N(CCc2ccc(OC)cc2)C1=O (stereo not drawn) [Compound 33, 1-(Vinylsulfonylamino)-3-[2-(4-methoxyphenyl)ethyl]-4-[(2,3-dihydrobenzo-[1,4]dioxin-6-yl)]-2-imidazolidinone] | 85% | 35 µM | 20% | – | – | – | –
14 | COc1ccc(CCCN2C(=O)N(N)CC2c2ccc(C(C)(C)C)cc2)cc1 (stereo not drawn) [Compound 119, 1-amino-4-(4-tert-butylphenyl)-3-[3-(4-methoxyphenyl)propyl]imidazolidin-2-one] | 80% | 2 µM | 70% | – | – | – | –
15 | COc1ccc(CCN2C(=O)N(NS(=O)(=O)Cc3ccccc3)CC2c2ccc(OC)cc2)cc1 (stereo not drawn) [Compound 63, 1-[(Phenylmethyl)sulfonylamino]-3-[2-(4-methoxyphenyl)ethyl]-4-(4-methoxyphenyl)-2-imidazolidinone] | 95% | 6.3 µM | 44% | – | – | – | –
16 | COc1ccc(CCN2C(=O)N(NS(C)(=O)=O)CC2Cc2ccc(C(C)(C)C)cc2)cc1 (stereo not drawn) [Compound 11, 1-(Methylsulfonylamino)-3-[2-(4-methoxyphenyl)ethyl]-4-[(4-tert-butyl)benzyl]-2-imidazolidinone] | 95% | 13 µM | 45% | – | – | – | –
17 | COc1ccc(CCN2C(=O)N(NS(C)(=O)=O)CC2c2ccc(C)cc2)cc1 (stereo not drawn) [Compound 20, 1-(Methylsulfonylamino)-3-[(4-methoxyphenyl)ethyl]-4-(4-methylphenyl)-2-imidazolidinone] | 73% | 30 µM | 15% | – | – | – | –
18 | COc1ccc(CCN2C(=O)N(NS(=O)(=O)CC(N)=O)CC2c2ccc(C3CC3)cc2)cc1 (stereo not drawn) [Compound 52, 1-[(2-Amino-2-oxoethyl)sulfonylamino]-3-[2-(4-methoxyphenyl)ethyl]-4-(4-cyclopropylphenyl)-2-imidazolidinone] | 80% | 16 µM | 29% | – | – | – | –
19 | COc1ccc(CCN2C(=O)N(NS(C)(=O)=O)CC2c2ccc(OC(F)(F)F)cc2)cc1 (stereo not drawn) [Compound 27, 1-[(Methylsulfonyl)amino]-3-[2-(4-methoxyphenyl)ethyl]-4-(4-trifluoro-methoxyphenyl)-2-imidazolidinone] | – | 19 µM | – | – | – | 56% | 63%
20 | COc1ccc(CCN2C(=O)N(NS(C)(=O)=O)CC2c2ccc(OC)cc2)cc1 (stereo not drawn) [Compound 23, 1-(Methylsulfonylamino)-3-[2-(4-methoxyphenyl)ethyl]-4-(4-methoxyphenyl)-2-imidazolidinone] | 66% | 30 µM | 21% | 0.703 µM | 23.6 µM | – | –
21 | COc1ccc(CCN2C(=O)N(N(CCn3ccnc3)C(C)=O)CC2c2ccc(C(C)(C)C)cc2)cc1 (stereo not drawn) [Compound 100, 1-N-[2-(Imidazol-1-yl)ethyl]-N-[acetyl]amino-3-[2-(4-methoxyphenyl)ethyl]-4-[(4-tert-butyl)phenyl]-2-imidazolidinone] | 46% | 16 µM | 92% | – | – | – | –
22 | COc1ccc(CCN2C(=O)N(NS(=O)(=O)C3CC3)CC2c2ccc(OC)cc2)cc1 (stereo not drawn) [Compound 29, 1-(Cyclopropylsulfonylamino)-3-[(4-methoxyphenyl)ethyl]-4-(4-methoxyphenyl)-2-imidazolidinone] | 85% | 34 µM | 31% | – | – | – | –
23 | COc1ccc(CCCN2C(=O)N(NS(C)(=O)=O)CC2c2ccc(C3CC3)cc2)cc1 (stereo not drawn) [Compound 48, 1-(Methylsulfonylamino)-3-[3-(4-methoxyphenyl)propyl]-4-[(4-cyclopropyl)-phenyl]-2-imidazolidinone] | 96% | 9 µM | 70% | 0.231 µM | 3.6 µM | – | –
24 | COc1ccc(CCN2C(=O)N(NC(=O)c3ccno3)CC2c2ccc(C(C)(C)C)cc2)cc1 (stereo not drawn) [Compound 79, 1-(Isoxazol-5-ylcarbonylamino)-3-[2-(4-methoxyphenyl)-ethyl]-4-[4-(tert-butyl)phenyl]-2-imidazolidinone] | 68% | 11 µM | 70% | – | – | – | –
25 | COc1ccc(CCN2C(=O)N(NCc3cnc4ccccc4c3)CC2c2ccc(C)c(C)c2)cc1 (stereo not drawn) [Compound 96, 4-(3,4-Dimethylphenyl)-3-[2-(4-methoxyphenyl)ethyl]-1-[(quinolin-3-ylmethyl)-amino]-2-imidazolidinone] | 86% | 1.9 µM | 87% | – | – | – | –
